This passage reports IC50 results from patent publication US10398689B2, “Benzopiperidine derivative, preparation method thereof and medical use thereof” (Jiangsu Hengrui Medicine Co., Ltd., priority 2015, dated 2019).

The target of one experiment is T1, ER (estrogen receptor) (Homo sapiens, UniProt P03372).
T1 construct: MCF-7/ERE-luciferase monoclonal cells were selected by transfection of MCF-7; host or cells: MCF-7/ERE-luciferase (only the ERE-luciferase reporter was transfected)
T1 sequence (P03372 1-595): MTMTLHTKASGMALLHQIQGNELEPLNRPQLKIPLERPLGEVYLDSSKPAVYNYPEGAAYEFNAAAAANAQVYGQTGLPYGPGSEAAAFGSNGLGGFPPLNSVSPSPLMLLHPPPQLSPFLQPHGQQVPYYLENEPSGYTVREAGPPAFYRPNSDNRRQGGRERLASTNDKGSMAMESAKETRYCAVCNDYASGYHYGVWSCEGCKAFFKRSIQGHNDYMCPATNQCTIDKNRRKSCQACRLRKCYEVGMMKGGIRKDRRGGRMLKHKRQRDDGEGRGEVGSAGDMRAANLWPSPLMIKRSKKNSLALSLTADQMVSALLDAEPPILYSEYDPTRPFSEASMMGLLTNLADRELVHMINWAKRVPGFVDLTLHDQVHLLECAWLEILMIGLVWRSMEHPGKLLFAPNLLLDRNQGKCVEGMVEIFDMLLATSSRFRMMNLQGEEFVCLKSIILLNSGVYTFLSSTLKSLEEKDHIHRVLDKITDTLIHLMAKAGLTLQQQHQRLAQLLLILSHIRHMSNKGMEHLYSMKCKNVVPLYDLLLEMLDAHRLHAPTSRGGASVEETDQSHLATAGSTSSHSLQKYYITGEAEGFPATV
Briefly: Inhibition of the binding of estrogen (E) to estrogen receptor (ER), MCF-7/ERE-luciferase reporter cells. The settings on record: MCF-7/ERE-luciferase cells, 0.1 nM estradiol, 24 hours, chemiluminescence; read-out: IC50 value of inhibition effect on the binding of E to ER. It counts as cell-based. As for the experimental part: The compounds of the present invention have an inhibition effect on the binding of E (estrogen) to ER (estrogen receptor), thereby blocking the binding of a complex of E and ER complex to ERE (estrogen responsive element), and subsequently blocking the expression of downstream luciferase protein.
The inhibition effect of the compounds on the binding of E to ER in vitro was tested by the following method.
The object of this experiment was to determine the inhibition effect of the compounds on the binding of E to ER, and the in vitro activity of the compounds was evaluated according to the IC50 values.
ERE was cloned into the upstream of the luciferase gene, and MCF-7/ERE-luciferase monoclonal cells were selected by transfection of MCF-7 (Cell Bank of Chinese Academy of Sciences typical culture preservation Committee, TCHu74). MCF-7/ERE-luciferase cells were inoculated into the MEM medium (hyclone, SH30024.01B) containing 10% charcoal stripped FBS (Moregate, FBSF), 1% sodium pyruvate (Sigma, S8636), 1% nonessential amino acids (Sigma, M7145) and 500 μg/ml G418 in a 96-well plates with a density of 30,000 cells/well, and the cells were incubated under the conditions of 37° C., and 5% CO2. The drug was prepared as a 20 mM stock solution that was later diluted with 100% DMSO in 10 fold concentration gradient, and then diluted 20-fold with the medium DMEM. After incubation for 24 hours, the medium was removed, then 0.1 nM estradiol (Sigma, E2758) and 10 μl of the drug diluted with the medium were added to each well, and the control group was added with DMSO. The plate was gently shaken and incubated in a incubator at 37° C., 5% CO2. After 24 hours, the cell culture medium was discarded, Then, 50 μl of the prepared luciferase substrate (Promega, E6110) was added to each well, and the plate was placed in the dark at room temperature for 10-15 minutes, then the chemiluminescence signal value was determined.
The inhibition effect of the compounds of the present invention on the binding of E to ER was tested by the experiment described above. The values of the chemiluminescence signal vs the logarithmic concentrations of the compounds were plotted using Graphpad Prism, and the measured IC50 values are shown in Table 1.
A general note: A reporter such as luciferase makes a cellular process visible.

In the next experiment the test system is MCF7 cells. Briefly: Inhibition of the proliferation of MCF7 cells (Cell Titer-Glo). The settings on record: Homo sapiens, MCF-7 cells, 72 hours, read-out: IC50 value of inhibition effect on the proliferation of MCF7 cells. It is filed as cell-based. As for the experimental part:
The object of this experiment was to determine the inhibition effect of the compounds on the proliferation activity of MCF7 cells, and the in vitro activity of the compounds was evaluated according to the IC50 values.
MCF-7 cells (Cell Bank of Chinese Academy of Sciences typical culture preservation Committee, TChu 74) were inoculated into the MEM medium (Hyclone, SH30024.01B) containing 10% FBS (Gibco, 10099-141), 1% sodium pyruvate (Sigma, S8636), and 1% nonessential amino acids (Sigma, M7145) in a 96-well plate with a density of 40,000 cells/well, and the cells were incubated under the conditions of 37° C., and 5% CO2. The compound was prepared as a 20 mM stock solution that was later diluted to 1000× final concentration with 100% DMSO, and then diluted with 20-fold medium containing 2% FBS. After incubation for 24 hours, the medium was removed and 90 μl of the medium containing 2% FBS and 10 μl of the drug were added to each well, 10 […] of DMSO was added to the control group, and the blank group contained only 100 μl medium containing 2% FBS. The plate was gently shaken and incubated in a incubator at 37° C., 5% CO2. After 72 hours later, 50 μl of mixed Cell Titer-Glo (Promega, G7571) was added to each well. The plate was shaken until the ingredients were mixed uniformly, and placed at room temperature for 10 minutes, then the chemiluminescence signal value was determined. The inhibition effect of the compound AZD9496 at 100 nM on the proliferation of MCF-7 cells was set to 100%, the maximum inhibition rate of other compounds=(chemiluminescence signal valuenegative control−chemiluminescence signal valuecompound 100 nm)/(chemiluminescence signal valuenegative control−chemiluminescence signal valueAZD9496 100 nm)×100%, and the negative control was a well with 0.5% DMSO.
The values of the chemiluminescence signals vs the logarithmic concentrations of the compounds were plotted using Graghpad Prism to obtain the IC50 values.
On the technique in general: Cellular ATP, detected with luciferase, serves as a proxy for viable cell number.

Consider `CCn1cc(-c2ccc3c(c2)C[C@@H](C)N(c2ccc(C4CC4)cc2C)[C@@H]3c2ccc(/C=C/C(=O)O)cc2)cn1` [Example 28, (E)-3-(4-((1R,3R)-2-(4-Cyclopropyl-2-methylphenyl)-6-(1-ethyl-1H-pyrazol-4-yl)-3-methyl-1,2,3,4-tetrahydroisoquinolin-1-yl)phenyl)acrylic acid], for which the IC50 stood at 0.42 nM on ER (estrogen receptor) and 0.31 nM in the experiment on MCF7 cells.
Taken in the same sequence, the figures for `CCn1cc(-c2ccc3c(c2)C[C@@H](C)N(c2ccc(C4CC4)cc2)[C@@H]3c2c(F)cc(/C=C/C(=O)O)cc2F)cn1` [Example 32] were 0.74 nM and 0.42 nM.
Turning to `CC1Cc2cc(-c3cnn(C(F)F)c3)ccc2C(c2ccc(/C=C/C(=O)O)cc2)N1c1ccc(C2CC2)cc1` (stereo not drawn) [Example 29], the figures for the IC50 on ER (estrogen receptor) and with MCF7 cells were 1.26 nM and 2.36 nM, respectively.
The matching figures for `CCn1cc(-c2ccc3c(c2)CC(C)N(c2ccc(C4CC4)cc2Cl)C3c2ccc(/C=C/C(=O)O)cc2)cn1` [Example 24, (E)-3-(4-((1R,3R/1S,3S)-2-(2-Chloro-4-cyclopropylphenyl)-6-(1-ethyl-1H-pyrazol-4-yl)-3-methyl-1,2,3,4-tetrahydroisoquinolin-1-yl)phenyl)acrylic acid]: 1.81 nM and 0.9 nM.
Taken in the same sequence, the figures for `Cc1ccc(N2C(C)Cc3cc(-c4cnn(C)c4)ccc3C2c2ccc(/C=C/C(=O)O)cc2)c(C)c1` [Example 37, (E)-3-(4-((1R,3R/1S,3S)-2-(2,4-Dimethylphenyl)-3-methyl-6-(1-methyl-1H-pyrazol-4-yl)-1,2,3,4-tetrahydroisoquinolin-1-yl)phenyl)acrylic acid] were 0.84 nM and 1.74 nM.
With `CCn1cc(-c2ccc3c(c2)CC(C)N(c2ccc(C4CC4)c(F)c2)C3c2ccc(/C=C/C(=O)O)cc2)cn1` [Example 26, (E)-3-(4-((1R,3R/1S,3S)-2-(4-Cyclopropyl-3-fluorophenyl)-6-(1-ethyl-1H-pyrazol-4-yl)-3-methyl-1,2,3,4-tetrahydroisoquinolin-1-yl)phenyl)acrylic acid], the IC50 on ER (estrogen receptor) amounted to 6.76 nM.
On to `Cc1ncc(-c2ccc3c(c2)CC(C)N(c2ccc(C4CC4)cc2)C3c2ccc(/C=C/C(=O)O)cc2)s1` [Example 35, (E)-3-(4-((1R,3R/1S,3S)-2-(4-Cyclopropylphenyl)-3-methyl-6-(2-methylthiazol-5-yl)-1,2,3,4-tetrahydroisoquinolin-1-yl)phenyl)acrylic acid], for which the IC50 on ER (estrogen receptor) amounted to 1 nM; in the experiment on MCF7 cells it was 1.03 nM.
Take `CCn1cc(-c2ccc3c(c2)C[C@@H](C)N(c2ccc(C(C)C)cc2)[C@@H]3c2c(F)cc(/C=C/C(=O)O)cc2F)cn1` [Example 38, (E)-3-(4-((1S,3R)-6-(1-Ethyl-1H-pyrazol-4-yl)-2-(4-isopropylphenyl)-3-methyl-1,2,3,4-tetrahydroisoquinolin-1-yl)-3,5-difluorophenyl)acrylic acid]: the IC50 on ER (estrogen receptor) amounted to 0.18 nM; in the experiment on MCF7 cells it was 0.38 nM.
Take `CCc1ccc(N2C(C)Cc3cc(-c4cnn(C)c4)ccc3C2c2ccc(/C=C/C(=O)O)cc2)c(CC)c1` [Example 45, (E)-3-(4-((1R,3R/1S,3S)-2-(2,4-Diethylphenyl)-3-methyl-6-(1-methyl-1H-pyrazol-4-yl)-1,2,3,4-tetrahydroisoquinolin-1-yl)phenyl)acrylic acid]: the IC50 at ER (estrogen receptor) turned out to be 4.06 nM.
Take `CC1Cc2cc(-c3cn[nH]c3)ccc2C(c2ccc(/C=C/C(=O)O)cc2)N1c1ccc(C2CC2)cc1` [Example 36, (E)-3-(4-((1R,3R/1S,3S)-2-(4-cyclopropylphenyl)-3-methyl-6-(1H-pyrazol-4-yl)-1,2,3,4-tetrahydroisoquinolin-1-yl)phenyl)acrylic acid]: the IC50 was found to be 5.63 nM on ER (estrogen receptor) and 2.8 nM with MCF7 cells.
The matching figures for `CCn1cc(-c2ccc3c(c2)CC(C)N(c2ccc(C4CC4)cc2)C3c2ccc(/C=C/C(=O)O)cc2F)cn1` [Example 25, (E)-3-(4-((1S,3R/1R,3S)-2-(4-Cyclopropylphenyl)-6-(1-ethyl-1H-pyrazol-4-yl)-3-methyl-1,2,3,4-tetrahydroisoquinolin-1-yl)-3-fluorophenyl)acrylic acid]: 1.62 nM and 0.89 nM.
For the compound `CC1Cc2cc(-c3cnn(C)c3)ccc2C(c2ccc(/C=C/C(=O)O)cc2)N1c1ccc(C(C)(C)C)cc1` [Example 41, (E)-3-(4-((1R,3R/1S,3S)-2-(4-(tert-Butyl)phenyl)-3-methyl-6-(1-methyl-1H-pyrazol-4-yl)-1,2,3,4-tetrahydroisoquinolin-1-yl)phenyl)acrylic acid], the IC50 at ER (estrogen receptor) came out at 8.08 nM.
In the case of `CC1Cc2cc(-c3cnn(C)c3)ccc2C(c2ccc(/C=C/C(=O)O)cc2)N1c1ccc(CC2CC2)cc1` [Example 47, (E)-3-(4-((1R,3R/1S,3S)-2-(4-(Cyclopropylmethyl)phenyl)-3-methyl-6-(1-methyl-1H-pyrazol-4-yl)-1,2,3,4-tetrahydroisoquinolin-1-yl)phenyl)acrylic acid], the IC50 on ER (estrogen receptor) was found to be 5.39 nM; in the experiment on MCF7 cells, 4.9 nM.
For the compound `CCOc1ccc(N2C(C)Cc3cc(-c4cnn(C)c4)ccc3C2c2ccc(/C=C/C(=O)O)cc2)cc1` [Example 44, (E)-3-(4-((1R,3R/1S,3S)-2-(4-Ethoxyphenyl)-3-methyl-6-(1-methyl-1H-pyrazol-4-yl)-1,2,3,4-tetrahydroisoquinolin-1-yl)phenyl)acrylic acid], the IC50 at ER (estrogen receptor) amounted to 7.57 nM.
The same measure, in the same setting: under `Cc1ccc(N2[C@H](c3ccc(/C=C/C(=O)O)cc3)c3ccc(-c4cnn(C)c4)cc3C[C@H]2C)cc1` [Example 34] stands 5.42 nM.
Regarding `CCCc1ccc(N2C(C)Cc3cc(-c4cnn(C)c4)ccc3C2c2ccc(/C=C/C(=O)O)cc2)cc1` [Example 20, (E)-3-(4-((1R,3R/1S,3S)-3-Methyl-6-(1-methyl-1H-pyrazol-4-yl)-2-(4-propylphenyl)-1,2,3,4-tetrahydroisoquinolin-1-yl)phenyl)acrylic acid], the IC50 in the experiment with MCF7 cells amounted to 4.53 nM.
On to `CC1Cc2cc(-c3cnn(C)c3)ccc2C(c2ccc(/C=C/C(=O)O)cc2)N1c1ccc(CC(F)(F)F)cc1` [Example 43, (E)-3-(4-((1R,3R/1S,3S)-3-Methyl-6-(1-methyl-1H-pyrazol-4-yl)-2-(4-(2,2,2-trifluoroethyl)phenyl)-1,2,3,4-tetrahydroisoquinolin-1-yl)phenyl)acrylic acid], for which the IC50 at ER (estrogen receptor) worked out at 31.7 nM.
